Measured values published in patent publication US10301272B2, “Carboxamide or sulfonamide substituted thiazoles and related derivatives as modulators for the orphan nuclear receptor ROR[γ]” (Phenex Pharmaceuticals AG, priority 2012, dated 2019).
Like-named read-outs stand apart in the source and are kept apart here.

Key:
[1] = target: RORγ (Homo sapiens, UniProt P51449); assay: RORγ Gal4 Reporter Gene Assay; format: cell-based
Method in brief: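 Cells at 5×10^5/well were transfected with RORγ fragments fused to the GAL4 DNA-binding domain (CMV promoter), a 5×GAL4-site firefly luciferase reporter and CMV-Renilla luciferase for normalization. About 4 h later serum-free MEM and compound were added (vehicle ≤0.1%). Cultures at 37 °C, 5% CO2; at least triplicates.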

[2] = target: RORγ ligand binding domain (LBD) (Homo sapiens (Human), UniProt P51449); assay: TR-FRET Activity Assay (ligand sensing assay, LANCE); conditions: for pIC50 (FRET): TR-FRET, interaction of RORγ-LBD with coactivator peptide
Excerpt: The ligand-binding domain (LBD) of RORγ was expressed as fusion protein with GST in BL-21 (BL3) cells using the vector pDEST15. Cells were lysed by lysozyme-treatment and sonication, and the fusion proteins purified over glutathione sepharose (Pharmacia) according to the manufacturers instructions. For screening of compounds for their influence on the RORγ-peptide interaction, the LANCE technology (Perkin Elmer) was applied. This method relies on the binding dependent energy transfer from a donor to an acceptor fluorophor attached to the binding partner of interest. For ease of handling and reduction of background from compound fluorescence LANCE technology makes use of generic fluorophore labels and time resolved detection assays were done in a final volume of 25 μL in a 384 well plate, in a Tris-based buffer system (20 mM Tris-HCl pH 6.8; 60 mM KCl, 1 mM DTT; 5 mM MgCl2; 35 ng/μL BSA), containing 20-60 ng/well recombinantly expressed RORγ-LBD fused to GST, 200-600 nM N-terminally biotinylated peptide, 200 ng/well Streptavidin-xlAPC conjugate (Prozyme) and 6-10 ng/well Eu W1024-antiGST (Perkin Elmer). DMSO content of the samples was kept at 1%.
After generation of the Tris-based buffer system, the potentially RORγ modulating ligands were diluted. […] The LANCE signal was detected by a Perkin Elmer EnVision™ Multilabel Counter. […] Ligands that promote the complex formation induce a concentration-dependent increase in time-resolved fluorescent signal.
Y is the response. Y starts at Bottom and goes to Top with a sigmoidal shape.
This is identical to the “four parameter logistic equation”. The IC50 values are calculated using this equation.

[3] = firefly (FF) luciferase, 293T cells, read-out: pIC50 (FF) (converted)
[4] = renilla normalised (RENnorm) luciferase, 293T cells, read-out: pIC50 (REN) (converted)
[5] = firefly (FF) luciferase, 293T cells
[6] = renilla normalised (RENnorm) luciferase, 293T cells

Chain of RORγ (P51449 whole entry, looked up, the tested form may be a part): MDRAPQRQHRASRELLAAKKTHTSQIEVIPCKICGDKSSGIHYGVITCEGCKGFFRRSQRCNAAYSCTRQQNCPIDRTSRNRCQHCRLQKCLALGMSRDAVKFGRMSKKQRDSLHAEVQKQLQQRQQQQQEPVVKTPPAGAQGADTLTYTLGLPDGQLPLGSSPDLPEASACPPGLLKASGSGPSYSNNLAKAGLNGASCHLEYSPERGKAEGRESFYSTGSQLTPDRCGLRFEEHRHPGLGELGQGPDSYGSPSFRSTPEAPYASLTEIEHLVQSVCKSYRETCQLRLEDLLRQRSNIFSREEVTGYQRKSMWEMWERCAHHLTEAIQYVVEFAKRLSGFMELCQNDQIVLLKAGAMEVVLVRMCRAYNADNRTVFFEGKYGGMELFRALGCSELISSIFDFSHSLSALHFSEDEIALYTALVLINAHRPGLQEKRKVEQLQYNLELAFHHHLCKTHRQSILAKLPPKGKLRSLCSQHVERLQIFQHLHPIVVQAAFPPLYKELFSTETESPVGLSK
Chain of RORγ ligand binding domain (LBD) (P51449 269-508): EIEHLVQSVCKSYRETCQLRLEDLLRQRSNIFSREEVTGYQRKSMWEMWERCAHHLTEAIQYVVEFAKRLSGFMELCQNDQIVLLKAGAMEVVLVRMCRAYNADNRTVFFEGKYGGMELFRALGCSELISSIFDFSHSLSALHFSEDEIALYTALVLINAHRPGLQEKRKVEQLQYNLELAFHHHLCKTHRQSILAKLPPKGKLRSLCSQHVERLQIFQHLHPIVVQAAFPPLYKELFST

SMILES | pIC50 (FF) [1] | pIC50 (REN) [1] | pIC50 (FRET) [2] | IC50 [1, 3] [µM] | IC50 [1, 4] [µM] | pIC50 (FF) [1, 5] | pIC50 (REN) [1, 6] | IC50 [2] [nM]
CC(C)(C)NS(=O)(=O)c1ccc(-c2sc(C(=O)NC3C[S+]([O-])C3)nc2CC2CCCCC2)cc1C(C)(C)O (centres unmarked) [Example 15/1] | 6.7/8.0/8.0 | 6.7/8.0/8.0 | 6.7/8.0/8.0 | – | – | – | – | –
CC(C)(O)CNC(=O)c1nc(CC2CCCCC2)c(-c2ccc(S(N)(=O)=O)c(Cl)c2Cl)s1 [Example 17, 4-(Cyclohexylmethyl)-5-(2,3-dichloro-4-sulfamoylphenyl)-N-(2-hydroxy-2-methylpropyl)thiazole-2-carboxamide] | – | – | 5.0 | > 20 | > 20 | – | – | –
NS(=O)(=O)c1c(Cl)cc(-c2sc(C(=O)NC3CCOCC3)nc2CC2CCCCC2)cc1C(F)(F)F [Example 17/1] | 5.6/6.1/6.5 | 5.6/6.1/6.5 | 5.6/6.1/6.5 | – | – | – | – | –
CCNS(=O)(=O)c1ccc(-c2sc(C(=O)NCC(C)(C)O)nc2CC2CCCCC2)c(Cl)c1Cl [Example 18, 4-(Cyclohexylmethyl)-5-(2,3-dichloro-4-(N-ethylsulfamoyl)phenyl)-N-(2-hydroxy-2-methylpropyl)thiazole-2-carboxamide] | 6.9/8.1/8.0 | 6.9/8.1/8.0 | 6.9/8.1/8.0 | – | – | – | – | –
COC(c1nc(C(=O)N[C@H]2C[C@H](C(=O)O)C2)sc1-c1ccc(S(=O)(=O)NC(C)(C)C)c(C(C)(C)C)c1)C1CCCCC1 (stereo partly drawn) [Example 19, trans-3-(5-(3-(tert-Butyl)-4-(N-(tert-butyl)sulfamoyl)phenyl)-4-(cyclohexyl(methoxy)methyl)thiazole-2-carboxamido)cyclobutanecarboxylic acid] | 5.4/6.4/6.6 | 5.4/6.4/6.6 | 5.4/6.4/6.6 | – | – | – | – | –
COC(c1nc(C(=O)NC2CCOCC2)sc1-c1ccc(S(=O)(=O)NC(C)(C)C)c(C(C)(C)C)c1)C1CCCCC1 (centres unmarked) [Example 19/1] | 6.1/6.7/6.7 | 6.1/6.7/6.7 | 6.1/6.7/6.7 | – | – | – | – | –
CC(C)(O)CNC(=O)c1nc(CC2CCC2)c(-c2ccc(S(=O)(=O)NC(C)(C)C)c(Cl)c2Cl)s1 [Example 21, 5-(4-(N-(tert-butyl)sulfamoyl)-2,3-dichlorophenyl)-4-(cyclobutylmethyl)-N-(2-hydroxy-2-methylpropyl)thiazole-2-carboxamide] | 7.0/8.1/8.2 | 7.0/8.1/8.2 | 7.0/8.1/8.2 | – | – | – | – | –
CC(C)(C)c1cc(-c2sc(C(=O)N[C@H]3C[C@H](C(=O)O)C3)[n+]([O-])c2CC2CCCCC2)cc(C(C)(C)C)n1 [Example 22, 2-(((trans)-3-Carboxycyclobutyl)carbamoyl)-4-(cyclohexylmethyl)-5-(2,6-di-tert-butylpyridin-4-yl)thiazole 3-oxide] | – | – | – | – | – | 7.1 | 7.1 | 398
CC(C)(C)NS(=O)(=O)c1ccc(-c2sc(C(=O)NC3CCC3)[n+]([O-])c2CC2CCCCC2)c2ccccc12 [Example 22/1] | – | – | 6.4 | – | – | 7.5 | 7.5 | –
CC(C)(C)c1cc(-c2sc(C(=O)N[C@H]3C[C@H](C(=O)O)C3)nc2CC2CCCCC2)cc(C(C)(C)O)c1 [Example 23, (trans)-3-(5-(3-(tert-Butyl)-5-(2-hydroxypropan-2-yl)phenyl)-4-(cyclohexylmethyl)-thiazole-2-carboxamido)cyclobutanecarboxylic acid] | – | – | – | – | – | 8.2 | – | 631
CC(C)(C)c1cc(-c2sc(C(=O)N[C@H]3C[C@H](C(=O)O)C3)nc2CC2CCCCC2)cc(C(C)(C)F)c1 [Example 24, (trans)-3-(5-(3-(tert-Butyl)-5-(2-fluoropropan-2-yl)phenyl)-4-(cyclohexylmethyl)thiazole-2-carboxamido)cyclobutanecarboxylic acid] | – | – | – | – | – | 7.5 | 7.5 | 316
CC(C)(C)c1cc(-c2oc(C(N)=O)nc2CC2CCCCC2)cc(C(C)(C)C)c1 [Example 100, 4-(Cyclohexylmethyl)-5-(3,5-di-tert-butylphenyl)oxazole-2-carboxamide] | 6.6/5.8/5.8 | 6.6/5.8/5.8 | 6.6/5.8/5.8 | – | – | – | – | –
CC(C)(C)NS(=O)(=O)c1ccc(-c2oc(C(=O)NC3CCOCC3)nc2CC2CCCCC2)cc1C(C)(C)C [Example 100/1] | 5.9/6.3/6.3 | 5.9/6.3/6.3 | 5.9/6.3/6.3 | – | – | – | – | –
CC(C)(C)c1cc(-c2nc(C(N)=O)oc2CC2CCCCC2)cc(C(C)(C)C)c1 [Example 101, 5-(Cyclohexylmethyl)-4-(3,5-di-tert-butylphenyl)oxazole-2-carboxamide] | – | – | 6.0 | > 20 | > 20 | – | – | –
CC(C)(C)NS(=O)(=O)c1ccc(-c2oc(C(=O)NC34CCC(C(=O)NS(C)(=O)=O)(CC3)CC4)nc2CC2CCCCC2)c2ccccc12 [Example 102, 5-(4-(N-(tert-Butyl)sulfamoyl)naphthalen-1-yl)-4-(cyclohexylmethyl)-N-(4-((methylsulfonyl)carbamoyl)bicyclo[2.2.2]octan-1-yl)oxazole-2-carboxamide] | 6.0/7.3/7.4 | 6.0/7.3/7.4 | 6.0/7.3/7.4 | – | – | – | – | –
CC(C)(C)NS(=O)(=O)c1ccc(-c2oc(C(=O)N[C@H]3C[C@H](C(=O)NS(C)(=O)=O)C3)nc2CC2CCCCC2)c2ccccc12 [Example 102/1] | 6.1/6.7/6.7 | 6.1/6.7/6.7 | 6.1/6.7/6.7 | – | – | – | – | –
CC(C)(C)NS(=O)(=O)c1ccc(-c2nc(C(=O)NC3CCS(=O)(=O)CC3)oc2CC2CCCCC2)c2ccccc12 [Example 103, 4-(4-(N-(tert-Butyl)sulfamoyl)naphthalen-1-yl)-5-(cyclohexylmethyl)-N-(1,1-dioxidotetrahydro-2H-thiopyran-4-yl)oxazole-2-carboxamide] | 6.3/7.2/7.3 | 6.3/7.2/7.3 | 6.3/7.2/7.3 | – | – | – | – | –
CC(C)(C)NS(=O)(=O)c1ccc(-c2nc(C(=O)NC34CCC(C(=O)O)(CC3)CC4)oc2CC2CCCCC2)c2ccccc12 [Example 103/1] | 6.2/7.4/7.4 | 6.2/7.4/7.4 | 6.2/7.4/7.4 | – | – | – | – | –
CC(C)(C)NS(=O)(=O)c1ccc(-c2oc(C(=O)NC3CCS(=O)(=O)CC3)nc2CC2CCC2)c2ccccc12 [Example 104, 5-(4-(N-(tert-Butyl)sulfamoyl)naphthalen-1-yl)-4-(cyclobutylmethyl)-N-(1,1-dioxidotetrahydro-2H-thiopyran-4-yl)oxazole-2-carboxamide] | 6.6/7.5/7.9 | 6.6/7.5/7.9 | 6.6/7.5/7.9 | – | – | – | – | –
CC(C)(O)CC(=O)Nc1nc(CC2CCCCC2)c(-c2ccc(S(=O)(=O)NC(C)(C)C)c(C(F)(F)F)c2)s1 [Example 200, N-(5-(4-(N-(tert-Butyl)sulfamoyl)-3-(trifluoromethyl)phenyl)-4-(cyclohexylmethyl)thiazol-2-yl)-3-hydroxy-3-methylbutanamide] | 6.6/7.5/7.8 | 6.6/7.5/7.8 | 6.6/7.5/7.8 | – | – | – | – | –
CCS(=O)(=O)c1ccc(CC(=O)Nc2nc(CC3CCCCC3)c(-c3ccc(S(=O)(=O)NC(C)(C)C)c(C(F)(F)F)c3)s2)cc1 [Example 200/1] | 7.1/7.4/7.8 | 7.1/7.4/7.8 | 7.1/7.4/7.8 | – | – | – | – | –
CC(C)(C)NS(=O)(=O)c1ccc(-c2sc(NS(C)(=O)=O)nc2CC2CCCCC2)cc1C(F)(F)F [Example 201, N-(tert-Butyl)-4-(4-(cyclohexylmethyl)-2-(methylsulfonamido)thiazol-5-yl)-2-(trifluoromethyl)benzenesulfonamide] | 6.0/6.5/6.6 | 6.0/6.5/6.6 | 6.0/6.5/6.6 | – | – | – | – | –
CC(C)(C)c1cc(-c2nc(C(N)=O)ncc2CC2CCCCC2)cc(C(C)(C)C)c1 [Example 206, 5-(Cyclohexylmethyl)-4-(3,5-di-tert-butylphenyl)pyrimidine-2-carboxamide] | 5.9/6.3/6.2 | 5.9/6.3/6.2 | 5.9/6.3/6.2 | – | – | – | – | –
CC(C)(C)c1cc(-c2nc(C(=O)NC3COC3)ncc2CC2CCCCC2)cc(C(C)(C)C)c1 [Example 207, 5-(Cyclohexylmethyl)-4-(3,5-di-tert-butylphenyl)-N-(oxetan-3-yl)pyrimidine-2-carboxamide] | 5.4/6.4/6.5 | 5.4/6.4/6.5 | 5.4/6.4/6.5 | – | – | – | – | –
CC(C)(O)CNC(=O)c1ncc(CC2CCCCC2)c(-c2cc(C(C)(C)C)cc(C(C)(C)C)c2)n1 [Example 207/1] | 6.0/6.2/6.1 | 6.0/6.2/6.1 | 6.0/6.2/6.1 | – | – | – | – | –
CC(C)(C)c1cc(-c2cc(C(N)=O)ccc2CC2CCCCC2)cc(C(C)(C)C)c1 [Example 208, 3′,5′-Di-tert-butyl-6-(cyclohexylmethyl)-[1,1′-biphenyl]-3-carboxamide] | 6.5/6.3/6.3 | 6.5/6.3/6.3 | 6.5/6.3/6.3 | – | – | – | – | –
CC(C)(C)c1cc(-c2ccc(C(N)=O)cc2CC2CCCCC2)cc(C(C)(C)C)c1 [Example 209] | 6.4/6.2/6.2 | 6.4/6.2/6.2 | 6.4/6.2/6.2 | – | – | – | – | –
CCS(=O)(=O)c1ccc(CC(=O)Nc2nc(-c3ccccc3)c(Cc3ccccc3)s2)cc1 [Example 211, N-(5-Benzyl-4-phenylthiazol-2-yl)-2-(4-(ethylsulfonyl)phenyl)acetamide] | – | – | 5.8 | – | – | 6.3 | 6.4 | –
